Test results: US8536187B2 (Gilead Sciences, Inc., priority 2008, dated 2013)

How the values were obtained:
[1] = system: HCV replicon in human hepatoma Huh-7 cell line; experiment: Anti-HCV replicon assay, EC50 (luciferase luminescence); type: cell-based; details: Hepatitis C virus, Huh-7, 72 h
How it was run: (§1)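 Huh-7 cells carrying HCV replicon (6000/well) incubated with serially diluted compound, 0.5% DMSO final, 3 days at 37° C, 5% CO2. EC50 from luciferase luminescence after 30 min lysis/substrate at room temperature; CC50 from CellTiter-Glo luminescence after 10 min at room temperature.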

[2] = CC50 assay (CellTiter-Glo) in Huh-7 HCV replicon cells; type: cell-based; details: human
How it was run: as §1

CC1(Oc2nc(NCc3ccc(-n4cncn4)cc3)nc3ccc(-c4ccc(OC5CCC5)nc4)nc23)CC1 [Example 249, N-(4-(1H-1,2,4-triazol-1-yl)benzyl)-6-(6-cyclobutoxy-pyridin-3-yl)-4-(1-methylcyclo-propoxy)pyrido[3,2-d] pyrimidin-2-amine] gave an EC50 [1] of less than 100 nM and a CC50 at 3 days ([2]; Table 2, 3 days incubation) of 1000 to 10000 nM.

Work on CS(=O)(=O)c1cccc(CNc2nc(NCC(F)(F)F)c3nc(-c4ccc(OC(F)F)c(S(C)(=O)=O)c4)ccc3n2)c1 [Example 174, N^2-(3-(methylsulfonyl)benzyl)-6-(4-(difluoromethoxy)-3-(methylsulfonyl)phenyl)-N^4-(2,2,2-trifluoroethyl)pyrido [3,2-d]pyrimidine-2,4-diamine] yielded an EC50 [1] of less than 100 nM and a CC50 at 3 days ([2]; Table 2, 3 days incubation) of less than 1000 nM.

NS(=O)(=O)c1ccc(CNc2nc(NCC(F)(F)F)c3nc(-c4ccc(F)cc4)ccc3n2)cc1Cl [Example 5, 2-Chloro-4-{[6-(4-fluoro-phenyl)-4-(2,2,2-trifluoro-ethylamino)-pyrido[-3,2-d]pyrimidin-2-ylamino]-methyl}-benzenesulfonamide] showed an EC50 [1] of less than 100 nM and a CC50 at 3 days ([2]; Table 1, 3 days incubation) greater than 25000 nM.

With CS(=O)(=O)c1cccc(-c2ccc3nc(NCc4ccc(-n5cncn5)cc4)nc(OC4CCC4)c3n2)c1 [Example 202, N-(4-(1H-1,2,4-triazol-1-yl)benzyl)-4-cyclobutoxy-6-(3-(methylsulfonyl)phenyl)pyrido [3,2-d]pyrimidin-2-amine] the EC50 [1] was less than 100 nM and the CC50 at 3 days ([2]; Table 2, 3 days incubation) was greater than 10000 nM.

Fc1ccc(-c2ccc3nc(NCc4ccc(-n5ccnc5)cc4)nc(NC4(C(F)(F)F)CC4)c3n2)cc1 [Example 126, N^2-(4-(1H-imidazol-1-yl)benzyl)-6-(4-fluorophenyl)-N^4-(1-(trifluoromethyl)cyclopropyl)pyrido[3,2-d] pyrimidine-2,4-diamine] showed an EC50 [1] of 250 to 2000 nM and a CC50 at 3 days ([2]; Table 2, 3 days incubation) of 1000 to 10000 nM.

With FC(F)(F)CNc1nc(NCc2ccc(-n3cncn3)cc2)nc2ccc(-c3cnc(OC4CC4)nc3)nc12 [Example 253, N^2-(4-(1H-1,2,4-triazol-1-yl)benzyl)-6-(2-cyclopropoxy-pyrimidin-5-yl)-N^4-(2,2,2-trifluoroethyl)pyrido[3,2-d] pyrimidine-2,4-diamine] the EC50 [1] was less than 100 nM and the CC50 at 3 days ([2]; Table 2, 3 days incubation) was greater than 10000 nM.

For CCC(=O)NS(=O)(=O)c1ccc(CNc2nc(NCC(F)(F)F)c3nc(-c4ccc(OC)c(S(C)(=O)=O)c4)ccc3n2)cc1 [Example 142, N-(4-((6-(4-methoxy-3-(methylsulfonyl)phenyl)-4-(2,2,2-trifluoroethylamino)pyrido[3,2-d]pyrimidin-2-ylamino)methyl)phenylsulfonyl) propionamide], the EC50 [1] was 250 to 2000 nM and the CC50 at 3 days ([2]; Table 2, 3 days incubation) was greater than 10000 nM.

CS(=O)(=O)Nc1cncc(CNc2nc(NC3(C(F)(F)F)CC3)c3nc(-c4ccc(F)cc4)ccc3n2)c1 [Example 134, N-(5-((6-(4-fluorophenyl)-4-(1-(trifluoromethyl)cyclopropyl-amino)pyrido[3,2-d]pyrimidin-2-ylamino)methyl)pyridin-3-yl)methanesulfonamide] gave an EC50 [1] of 250 to 2000 nM and a CC50 at 3 days ([2]; Table 2, 3 days incubation) greater than 10000 nM.

C[C@@H](Nc1nc(NCC(F)(F)F)c2nc(-c3cncc(S(C)(=O)=O)c3)ccc2n1)c1ccc(S(N)(=O)=O)cc1 [Example 156, 4-((R)-1-(6-(5-(methylsulfonyl)pyridin-3-yl)-4-(2,2,2-trifluoroethylamino)pyrido [3,2-d]pyrimidin-2-ylamino)ethyl)benzenesulfonamide] gave an EC50 [1] of 250 to 2000 nM and a CC50 at 3 days ([2]; Table 2, 3 days incubation) greater than 10000 nM.

C#Cc1ccc2nc(N[C@H](C)c3ccc(S(N)(=O)=O)cc3)nc(OC(C)C)c2n1 [Example 306, (R)-4-(1-(6-ethynyl-4-isopropoxypyrido[3,2-d]pyrimidin-2-ylamino)ethyl) benzenesulfonamide] showed an EC50 [1] of 250 to 2000 nM and a CC50 at 3 days ([2]; Table 2, 3 days incubation) of less than 1000 nM.

O=C1NCCN1c1ccc(-c2ccc3nc(NCc4ccc(-n5cncn5)cc4)nc(NC4(C(F)(F)F)CC4)c3n2)cc1 [Example 129, 1-(4-(2-(4-(1H-1,2,4-triazol-1-yl)benzylamino)-4-(1-(trifluoromethyl)cyclopropyl-amino)pyrido[3,2-d]pyrimidin-6-yl)phenyl)imidazolidin-2-one] showed an EC50 [1] of less than 100 nM and a CC50 at 3 days ([2]; Table 2, 3 days incubation) of less than 1000 nM.

Nc1ccc(-c2ccc3nc(NCc4ccc(-n5cncn5)cc4)nc(NC4(C(F)(F)F)CC4)c3n2)cn1 [Example 112, N^2-(4-(1H-1,2,4-triazol-1-yl)benzyl)-6-(6-aminopyridin-3-yl)-N^4-(1-(trifluoromethyl)cyclopropyl)pyrido[3,2-d] pyrimidine-2,4-diamine] gave an EC50 [1] of less than 100 nM and a CC50 at 3 days ([2]; Table 2, 3 days incubation) of 1000 to 10000 nM.

With Cc1cc(S(N)(=O)=O)ccc1[C@@H](C)Nc1nc(NC2(C(F)(F)F)CC2)c2nc(-c3ccc(F)cc3)ccc2n1 [Example 117, (R)-4-(1-(6-(4-fluorophenyl)-4-(1-(trifluoromethyl)cyclopropyl-amino)pyrido[3,2-d]pyrimidin-2-ylamino)ethyl)-3-methylbenzene-sulfonamide] the EC50 [1] was less than 100 nM and the CC50 at 3 days ([2]; Table 2, 3 days incubation) was greater than 10000 nM.

CCS(=O)(=O)c1cccc(-c2ccc3nc(NCc4ccc(-n5cncn5)cc4)nc(NCC(F)(F)F)c3n2)c1 [Example 181, N^2-(4-(1H-1,2,4-triazol-1-yl)benzyl)-6-(3-(ethylsulfonyl)phenyl)-N^4-(2,2,2-trifluoroethyl)pyrido [3,2-d]pyrimidine-2,4-diamine] gave an EC50 [1] of less than 100 nM and a CC50 at 3 days ([2]; Table 2, 3 days incubation) greater than 10000 nM.

NS(=O)(=O)c1ccc(CNc2nc(NC3(C(F)(F)F)CC3)c3nc(-c4cccc(C(F)(F)F)c4)ccc3n2)cc1 [Example 80, 4-((4-(1-(trifluoromethyl)cyclopropylamino)-6-(3-(trifluoromethyl)phenyl)pyrido [3,2-d]pyrimidin-2-ylamino)methyl)benzenesulfonamide] gave an EC50 [1] of 250 to 2000 nM and a CC50 at 3 days ([2]; Table 2, 3 days incubation) of 1000 to 10000 nM.

In the case of COc1nc(N[C@H](C)c2ccc(S(N)(=O)=O)cc2)nc2ccc(C#CC3CC3)nc12 [Example 315, (R)-4-(1-(6-(2-cyclopropyl-ethynyl)-4-methoxypyrido [3,2-d]pyrimidin-2-ylamino)ethyl)benzenesulfonamide], the EC50 [1] is reported as 250 to 2000 nM and the CC50 at 3 days ([2]; Table 2, 3 days incubation) is reported as greater than 10000 nM.

FC(F)(F)CNc1nc(NCc2ccc(-n3cncn3)cc2)nc2ccc(-c3ccc(OC4CC4)nc3)nc12 [Example 246, N^2-(4-(1H-1,2,4-triazol-1-yl)benzyl)-6-(6-cyclopropoxy-pyridin-3-yl)-N^4-(2,2,2-trifluoroethyl)pyrido[3,2-d] pyrimidine-2,4-diamine] showed an EC50 [1] of less than 100 nM and a CC50 at 3 days ([2]; Table 2, 3 days incubation) greater than 10000 nM.

Work on CC(C)(C)NS(=O)(=O)c1cc(F)cc(CNc2nc(NC3(C(F)(F)F)CC3)c3nc(-c4ccc(F)nc4)ccc3n2)c1 [Example 78, N-tert-butyl-3-fluoro-5-((6-(6-fluoropyridin-3-yl)-4-(1-(trifluoromethyl)cyclopropyl-amino)pyrido[3,2-d]pyrimidin-2-ylamino)methyl)benzene-sulfonamide] yielded an EC50 [1] of 100 to 250 nM and a CC50 at 3 days ([2]; Table 2, 3 days incubation) greater than 10000 nM.

CN1CCN(c2ccc(-c3ccc4nc(NCc5cccc(S(C)(=O)=O)c5)nc(NC5(C(F)(F)F)CC5)c4n3)cc2)C1=O [Example 50, 1-(4-(2-(3-(methylsulfonyl)benzylamino)-4-(1-(trifluoromethyl)cyclopropylamino)pyrido[3,2-d]pyrimidin-6-yl)phenyl)-3-methylimidazolidin-2-one] showed an EC50 [1] of less than 100 nM and a CC50 at 3 days ([2]; Table 2, 3 days incubation) of 1000 to 10000 nM.

CC#Cc1ccc2nc(N[C@H](C)c3ccc(S(N)(=O)=O)cc3)nc(O[C@@H]3C[C@@H]4C[C@@H]4C3)c2n1 [Example 313, 4-((R)-1-(4-((1S,3r,5R)-bicyclo[3.1.0]hexan-3-yloxy)-6-(prop-1-ynyl)pyrido[3,2-d]pyrimidin-2-ylamino)ethyl) benzenesulfonamide] gave an EC50 [1] of less than 100 nM and a CC50 at 3 days ([2]; Table 2, 3 days incubation) greater than 10000 nM.

Work on COCC#Cc1ccc2nc(NCc3cc(C(F)(F)F)cc(S(N)(=O)=O)c3)nc(NCC(F)(F)F)c2n1 [Example 282, 3-((6-(3-methoxyprop-1-ynyl)-4-(2,2,2-trifluoroethylamino)pyrido[3,2-d]pyrimidin-2-ylamino)methyl)-5-(trifluoro-methyl)benzenesulfonamide] yielded an EC50 [1] of 250 to 2000 nM and a CC50 at 3 days ([2]; Table 2, 3 days incubation) greater than 10000 nM.

CC#Cc1ccc2nc(N[C@H](C)c3ccc(S(N)(=O)=O)cc3)nc(OC3(C)CC3)c2n1 [Example 302, (R)-4-(1-(4-(1-methylcyclo-propoxy)-6-(prop-1-ynyl)pyrido[3,2-d]pyrimidin-2-ylamino)ethyl)benzene-sulfonamide] showed an EC50 [1] of less than 100 nM and a CC50 at 3 days ([2]; Table 2, 3 days incubation) greater than 10000 nM.

Work on C[C@@H](Nc1nc(NCC(F)(F)F)c2nc(C#CC(C)(C)O)ccc2n1)c1ccc(S(N)(=O)=O)cc1 [Example 276, (R)-4-(1-(6-(3-hydroxy-3-methylbut-1-ynyl)-4-(2,2,2-trifluoroethylamino)pyrido [3,2-d]pyrimidin-2-ylamino)ethyl)benzenesulfonamide] yielded an EC50 [1] of 250 to 2000 nM and a CC50 at 3 days ([2]; Table 2, 3 days incubation) greater than 10000 nM.
